These results are taken from patent publication US20240025884A1 (Dong-A ST Co., Ltd., priority 2022, published 2024).

Each structure is given as a SMILES string.

Chain of GCN2 (Q9P2K8 whole entry): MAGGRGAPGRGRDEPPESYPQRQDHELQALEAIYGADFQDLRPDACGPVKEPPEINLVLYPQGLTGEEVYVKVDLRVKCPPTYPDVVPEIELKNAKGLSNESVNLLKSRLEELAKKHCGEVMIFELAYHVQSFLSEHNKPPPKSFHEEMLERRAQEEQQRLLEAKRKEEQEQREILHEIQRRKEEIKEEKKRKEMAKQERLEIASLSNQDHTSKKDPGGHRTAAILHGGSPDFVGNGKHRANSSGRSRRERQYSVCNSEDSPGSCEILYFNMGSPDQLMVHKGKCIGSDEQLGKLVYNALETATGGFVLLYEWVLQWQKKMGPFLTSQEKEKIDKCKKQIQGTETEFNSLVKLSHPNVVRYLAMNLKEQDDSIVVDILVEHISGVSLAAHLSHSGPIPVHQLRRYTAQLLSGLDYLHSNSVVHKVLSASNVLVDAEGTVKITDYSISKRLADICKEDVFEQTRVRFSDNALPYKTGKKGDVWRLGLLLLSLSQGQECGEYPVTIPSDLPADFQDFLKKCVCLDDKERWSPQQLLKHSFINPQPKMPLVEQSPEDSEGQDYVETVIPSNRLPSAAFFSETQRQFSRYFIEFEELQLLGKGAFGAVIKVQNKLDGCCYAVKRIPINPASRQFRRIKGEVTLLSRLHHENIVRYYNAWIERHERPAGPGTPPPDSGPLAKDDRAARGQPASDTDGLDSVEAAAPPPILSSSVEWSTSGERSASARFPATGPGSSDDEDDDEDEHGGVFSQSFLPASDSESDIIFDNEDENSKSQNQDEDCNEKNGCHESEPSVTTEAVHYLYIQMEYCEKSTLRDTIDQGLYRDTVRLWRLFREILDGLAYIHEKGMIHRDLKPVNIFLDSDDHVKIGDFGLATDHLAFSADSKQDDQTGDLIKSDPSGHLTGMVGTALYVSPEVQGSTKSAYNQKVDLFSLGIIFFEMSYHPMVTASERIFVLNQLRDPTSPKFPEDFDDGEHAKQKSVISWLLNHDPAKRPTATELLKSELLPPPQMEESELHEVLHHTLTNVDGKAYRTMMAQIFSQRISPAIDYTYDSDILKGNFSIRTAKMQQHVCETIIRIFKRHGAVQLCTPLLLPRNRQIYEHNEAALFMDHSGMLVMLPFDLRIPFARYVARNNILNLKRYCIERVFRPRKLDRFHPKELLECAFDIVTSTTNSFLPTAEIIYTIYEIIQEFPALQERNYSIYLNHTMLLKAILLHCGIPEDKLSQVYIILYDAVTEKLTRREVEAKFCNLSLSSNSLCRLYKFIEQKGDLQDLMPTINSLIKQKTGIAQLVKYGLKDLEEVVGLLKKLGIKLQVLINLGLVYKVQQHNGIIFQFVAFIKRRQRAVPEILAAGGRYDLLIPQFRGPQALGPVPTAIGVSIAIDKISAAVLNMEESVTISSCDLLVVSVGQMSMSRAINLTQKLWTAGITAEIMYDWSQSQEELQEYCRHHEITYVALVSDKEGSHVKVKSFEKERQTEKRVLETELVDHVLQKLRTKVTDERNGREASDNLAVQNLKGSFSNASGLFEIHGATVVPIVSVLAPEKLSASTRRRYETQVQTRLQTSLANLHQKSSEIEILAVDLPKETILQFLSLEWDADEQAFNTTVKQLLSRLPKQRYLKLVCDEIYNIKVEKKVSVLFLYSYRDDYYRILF

In the experiment the target is GCN2 (Homo sapiens (Human), UniProt Q9P2K8). The experiment can be described thus: GCN2 Biochemical Assay (TR-FRET, GFP-eIF2S1 substrate phosphorylation). The settings on record: read-out: IC50 (GCN2 Inhibitory Activity). The procedure, abridged:
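TR-FRET readout (Ex 340, Em 490/520 nm) after 2–3 h with Tb-labelled phospho-eIF2S1 antibody in stop mix, following a 70 min room-temperature kinase step. Reaction: in-house GCN2, GFP-eIF2S1, ATP, tRNA in Tris pH 7.5 (2× stocks 1.6 nM, 50 nM, 0.2 mM); compounds tested at 10 concentrations, with a phospho-substrate artifact counter-plate.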
By IC50 is commonly meant the midpoint of a concentration-inhibition curve. For `Cc1cnc(NC2CC2)nc1O[C@H]1CCN(CC(=O)Nc2cccc3c(-c4nc(Nc5cc(C)n(C)n5)ncc4C)c[nH]c23)C1` [Example 235, (S)-2-(3-((2-(cyclopropylamino)-5-methylpyrimidin-4-yl)oxy)pyrrolidin-1-yl)-N-(3-(2-((1,5-dimethyl-1H-pyrazol-3-yl)amino)-5-methylpyrimidin-4-yl)-1H-indol-7-yl)acetamide], the IC50 fell in the range of 0.01 to 0.1 µM.

Regarding `CNc1cc(-c2cccc3c2CN(c2cccc4c(-c5nc(Nc6cc(C)n(C)n6)ncc5C)c[nH]c24)C3=O)ccn1` [Example 476, 2-(3-(2-((1,5-dimethyl-1H-pyrazol-3-yl)amino)-5-methylpyrimidin-4-yl)-1H-indol-7-yl)-4-(2-(methylamino)pyridin-4-yl)isoindolin-1-one], the IC50 is less than 0.01 µM.

As for `CCN(CC)c1cc(O[C@H]2CCN(CC(=O)Nc3cccc4c(-c5nc(Nc6cc(C)n(C)n6)ncc5C)c[nH]c34)C2)ncn1` [Example 155, (S)-2-(3-((6-(diethylamino)pyrimidin-4-yl)oxy)pyrrolidin-1-yl)-N-(3-(2-((1,5-dimethyl-1H-pyrazol-3-yl)amino)-5-methylpyrimidin-4-yl)-1H-indol-7-yl)acetamide], the IC50 fell in the range of 0.01 to 0.1 µM.

As to `Cc1cnc(Nc2cc(C)n(C)n2)nc1-c1c[nH]c2c(N3Cc4c(cccc4-c4cccc5[nH]ncc45)C3=O)cccc12` [Example 457, 2-(3-(2-((1,5-dimethyl-1H-pyrazol-3-yl)amino)-5-methylpyrimidin-4-yl)-1H-indol-7-yl)-4-(1H-indazol-4-yl)isoindolin-1-one], the IC50 was less than 0.01 µM.

For the molecule `Cc1cnc(Nc2cc(C)n(C)n2)nc1-c1c[nH]c2c(NC(=O)CN3C[C@@H](F)[C@H](Oc4ccnc(NC5CC5)n4)C3)cccc12` [Example 53, 2-((3R,4R)-3-((2-(cyclopropylamino)pyrimidin-4-yl)oxy)-4-fluoropyrrolidin-1-yl)-N-(3-(2-((1,5-dimethyl-1H-pyrazol-3-yl)amino)-5-methylpyrimidin-4-yl)-1H-indol-7-yl)acetamide], the IC50 is less than 0.01 µM.

Turning to `Cc1cnc(Nc2cc(C)n(C)n2)nc1-c1c[nH]c2c(N3Cc4c(cccc4-c4cc(F)nc(F)c4)C3=O)cccc12` [Example 427, 4-(2,6-difluoropyridin-4-yl)-2-(3-(2-((1,5-dimethyl-1H-pyrazol-3-yl)amino)-5-methylpyrimidin-4-yl)-1H-indol-7-yl)isoindolin-1-one], the IC50 is less than 0.01 µM.

Take `Cc1cnc(Nc2cc(C)n(C)n2)nc1-c1c[nH]c2c(NC(=O)CN3CC[C@H](Oc4ccnc(NCCCN(C)C)n4)C3)cccc12` [Example 218, (S)-N-(3-(2-((1,5-dimethyl-1H-pyrazol-3-yl)amino)-5-methylpyrimidin-4-yl)-1H-indol-7-yl)-2-(3-((2-((3-(dimethylamino)propyl)amino)pyrimidin-4-yl)oxy)pyrrolidin-1-yl)acetamide]: the IC50 was less than 0.01 µM.

As for `Cc1cnc(Nc2cc(C)n(C)n2)nc1-c1c[nH]c2c(NC(=O)CN3CC[C@H](Oc4cccc(F)c4)C3)cccc12` [Example 81, (S)-N-(3-(2-((1,5-dimethyl-1H-pyrazol-3-yl)amino)-5-methylpyrimidin-4-yl)-1H-indol-7-yl)-2-(3-(3-fluorophenoxy)pyrrolidin-1-yl)acetamide], the IC50 was in the range of 0.1 to 1 µM.

In the case of `Cc1cnc(Nc2cc(C)n(C)n2)nc1-c1c[nH]c2c(NC(=O)CN3CC[C@H](Oc4ccnc(NC5CCCCC5)n4)C3)cccc12` [Example 210, (S)-2-(3-((2-(cyclohexylamino)pyrimidin-4-yl)oxy)pyrrolidin-1-yl)-N-(3-(2-((1,5-dimethyl-1H-pyrazol-3-yl)amino)-5-methylpyrimidin-4-yl)-1H-indol-7-yl)acetamide], the IC50 lay within 0.01 to 0.1 µM.

In the case of `Cc1cnc(Nc2cc(C)n(C)n2)nc1-c1c[nH]c2c(N3Cc4c(NC(=O)[C@@H]5CCNC5)cccc4C3=O)cccc12` [Example 315, (R)-N-(2-(3-(2-((1,5-dimethyl-1H-pyrazol-3-yl)amino)-5-methylpyrimidin-4-yl)-1H-indol-7-yl)-1-oxoisoindolin-4-yl)pyrrolidine-3-carboxamide], the IC50 was less than 0.01 µM.

With `Cc1cnc(Nc2cc(C)n(C)n2)nc1-c1c[nH]c2c(N3Cc4ccc([N+](=O)[O-])cc4C3=O)cccc12` [Example 268, 2-(3-(2-((1,5-dimethyl-1H-pyrazol-3-yl)amino)-5-methylpyrimidin-4-yl)-1H-indol-7-yl)-6-nitroisoindolin-1-one], the IC50 is less than 0.01 µM.

For the molecule `Cc1cnc(Nc2cc(C)n(C)n2)nc1-c1c[nH]c2c(N3Cc4c(NC(=O)Cc5cccc(O)c5)cccc4C3=O)cccc12` [Example 304, N-(2-(3-(2-((1,5-dimethyl-1H-pyrazol-3-yl)amino)-5-methylpyrimidin-4-yl)-1H-indol-7-yl)-1-oxoisoindolin-4-yl)-2-(3-hydroxyphenyl)acetamide], the IC50 is less than 0.01 µM.

Turning to `Cc1cnc(Nc2cc(C)n(C)n2)nc1-c1c[nH]c2c(N3Cc4c(cccc4-c4ccsc4)C3=O)cccc12` [Example 461, 2-(3-(2-((1,5-dimethyl-1H-pyrazol-3-yl)amino)-5-methylpyrimidin-4-yl)-1H-indol-7-yl)-4-(thiophen-3-yl)isoindolin-1-one], the IC50 was 0.01 to 0.1 µM.

As for `Cc1cnc(Nc2cc(C)n(C)n2)nc1-c1c[nH]c2c(NC(=O)CN3CC[C@H](O)C3)cccc12` [Example 72, (S)-N-(3-(2-((1,5-dimethyl-1H-pyrazol-3-yl)amino)-5-methylpyrimidin-4-yl)-1H-indol-7-yl)-2-(3-hydroxypyrrolidin-1-yl)acetamide], the IC50 is 0.01 to 0.1 µM.

As for `Cc1cncc(-c2cccc3c2CN(c2cccc4c(-c5nc(Nc6cc(C)n(C)n6)ncc5C)c[nH]c24)C3=O)c1` [Example 477, 2-(3-(2-((1,5-dimethyl-1H-pyrazol-3-yl)amino)-5-methylpyrimidin-4-yl)-1H-indol-7-yl)-4-(5-methylpyridin-3-yl)isoindolin-1-one], the IC50 is less than 0.01 µM.

Regarding `Cc1cnc(Nc2cc(C)n(C)n2)nc1-c1c[nH]c2c(N3Cc4c(cccc4-c4ccccc4)C3=O)cccc12` [Example 377, 2-(3-(2-((1,5-dimethyl-1H-pyrazol-3-yl)amino)-5-methylpyrimidin-4-yl)-1H-indol-7-yl)-4-phenylisoindolin-1-one], the IC50 was less than 0.01 µM.

Regarding `Cc1cnc(Nc2cc(C)n(C)n2)nc1-c1c[nH]c2c(NC(=O)CN3CC[C@H](Oc4cc(NCCc5ccccc5)ncn4)C3)cccc12` [Example 150, (S)-N-(3-(2-((1,5-dimethyl-1H-pyrazol-3-yl)amino)-5-methylpyrimidin-4-yl)-1H-indol-7-yl)-2-(3-((6-(phenethylamino)pyrimidin-4-yl)oxy)pyrrolidin-1-yl)acetamide], the IC50 fell in the range of 0.01 to 0.1 µM.

`Cc1cnc(Nc2cc(C)n(C)n2)nc1-c1c[nH]c2c(N3Cc4c(cccc4-c4cnn(CC5CC5)c4)C3=O)cccc12` [Example 415, 4-(1-(cyclopropylmethyl)-1H-pyrazol-4-yl)-2-(3-(2-((1,5-dimethyl-1H-pyrazol-3-yl)amino)-5-methylpyrimidin-4-yl)-1H-indol-7-yl)isoindolin-1-one]: the IC50 is less than 0.01 µM.

For `Cc1cnc(Nc2cc(C)n(C)n2)nc1-c1c[nH]c2c(N3Cc4c(cccc4[N+](=O)[O-])C3=O)cccc12` [Example 271, 2-(3-(2-((1,5-dimethyl-1H-pyrazol-3-yl)amino)-5-methylpyrimidin-4-yl)-1H-indol-7-yl)-4-nitroisoindolin-1-one], the IC50 is less than 0.01 µM.

For `Cc1cnc(Nc2cc(C)n(C)n2)nc1-c1c[nH]c2c(N3Cc4c(cccc4-c4cncc(F)c4)C3=O)cccc12` [Example 478, 2-(3-(2-((1,5-dimethyl-1H-pyrazol-3-yl)amino)-5-methylpyrimidin-4-yl)-1H-indol-7-yl)-4-(5-fluoropyridin-3-yl)isoindolin-1-one], the IC50 was less than 0.01 µM.

Take `Cc1cc(Nc2ncc(F)c(-c3c[nH]c4c(NC(=O)CN5CC[C@H](Oc6ccncc6)C5)cccc34)n2)nn1C` [Example 8, (S)-N-(3-(2-((1,5-dimethyl-1H-pyrazol-3-yl)amino)-5-fluoropyrimidin-4-yl)-1H-indol-7-yl)-2-(3-(pyridin-4-yloxy)pyrrolidin-1-yl)acetamide]: the IC50 was less than 0.01 µM.

For the molecule `Cc1cnc(Nc2cc(C)n(C)n2)nc1-c1c[nH]c2c(NC(=O)CN3CC[C@H](Oc4cc(N5CCCC5)ncn4)C3)cccc12` [Example 158, (S)-N-(3-(2-((1,5-dimethyl-1H-pyrazol-3-yl)amino)-5-methylpyrimidin-4-yl)-1H-indol-7-yl)-2-(3-((6-(pyrrolidin-1-yl)pyrimidin-4-yl)oxy)pyrrolidin-1-yl)acetamide], the IC50 is less than 0.01 µM.

Turning to `Cc1cnc(Nc2cc(C)n(C)n2)nc1-c1c[nH]c2c(NC(=O)CN3CC[C@H](Oc4ccnc(N)n4)C3)cccc12` [Example 192, (S)-2-(3-((2-aminopyrimidin-4-yl)oxy)pyrrolidin-1-yl)-N-(3-(2-((1,5-dimethyl-1H-pyrazol-3-yl)amino)-5-methylpyrimidin-4-yl)-1H-indol-7-yl)acetamide], the IC50 is less than 0.01 µM.

For the molecule `Cc1cnc(Nc2cc(C)n(C)n2)nc1-c1c[nH]c2c(N3Cc4c(NC(=O)[C@H]5CCC(=O)N5)cccc4C3=O)cccc12` [Example 318, (R)-N-(2-(3-(2-((1,5-dimethyl-1H-pyrazol-3-yl)amino)-5-methylpyrimidin-4-yl)-1H-indol-7-yl)-1-oxoisoindolin-4-yl)-5-oxopyrrolidine-2-carboxamide], the IC50 is less than 0.01 µM.

As to `Cc1cnc(Nc2cc(C)n(C)n2)nc1-c1c[nH]c2c(N3Cc4cccc(Br)c4C3=O)cccc12` [Example 277, 7-bromo-2-(3-(2-((1,5-dimethyl-1H-pyrazol-3-yl)amino)-5-methylpyrimidin-4-yl)-1H-indol-7-yl)isoindolin-1-one], the IC50 lay within 0.01 to 0.1 µM.

On to `CCN(CC)c1cccc(O[C@H]2CCN(CC(=O)Nc3cccc4c(-c5nc(Nc6cc(C)n(C)n6)ncc5C)c[nH]c34)C2)c1` [Example 88], for which the IC50 lay in the range of 0.1 to 1 µM.
